From patent US9487510B2, “Substituted heterocyclic acetamides as kappa opioid receptor (KOR) agonists” (Dr. Reddy's Laboratories Ltd., priority 2012, dated 2016)
Structures can show the parent of a compound that is named as a salt.

Molecular target: human KOR receptor (Homo sapiens, UniProt P41145)
Assay: IP-One HTRF assay, potency of KOR agonists, dose-response in transiently transfected COS-7 cells
Assay type: cell-based

Sequence of human KOR receptor (P41145 whole entry): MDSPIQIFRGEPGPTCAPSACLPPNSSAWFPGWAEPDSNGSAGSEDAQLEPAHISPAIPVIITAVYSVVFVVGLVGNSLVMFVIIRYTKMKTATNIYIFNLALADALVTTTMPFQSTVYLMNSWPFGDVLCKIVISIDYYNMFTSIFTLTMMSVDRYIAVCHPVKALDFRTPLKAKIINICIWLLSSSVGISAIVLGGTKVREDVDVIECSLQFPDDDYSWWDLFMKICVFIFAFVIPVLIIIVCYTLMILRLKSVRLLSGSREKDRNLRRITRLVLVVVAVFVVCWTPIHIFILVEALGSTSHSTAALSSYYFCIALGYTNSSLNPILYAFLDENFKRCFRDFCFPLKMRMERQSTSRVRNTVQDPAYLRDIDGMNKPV

Compound: CN(C(=O)Cc1ccc2c(c1)N(C)S(=O)(=O)C2)[C@H](CN1CC[C@H](O)C1)c1cccc(OCC(=O)O)c1 [Example 80, 2-(3-((S)-2-((S)-3-hydroxypyrrolidin-1-yl)-1-(N-methyl-2-(1-methyl-2,2-dioxido-1,3-dihydrobenzo[c]isothiazol-6-yl)acetamido)ethyl)phenoxy)acetic acid]
- EC50: ≤ 50 nM

Compound: CC(C)(C)OC(=O)Cn1c(=O)oc2ccc(CC(=O)N[C@H](CN3CCCC3)c3ccccc3)cc21 [Example 82, (S)-tert-butyl-2-(2-oxo-5-(2-oxo-2-(1-phenyl-2-(pyrrolidin-1-yl)ethylamino)ethyl)benzo[d]oxazol-3(2H)-yl)acetate]
- EC50: ≤ 50 nM

Compound: O=C(O)Cn1c(=O)oc2ccc(CC(=O)N[C@H](CN3CCCC3)c3ccccc3)cc21 [Example 83, (S)-2-(2-oxo-5-(2-oxo-2-(1-phenyl-2-(pyrrolidin-1-yl)ethylamino)ethyl)benzo[d]oxazol-3(2H)-yl)acetic acid hydrochloride]
- EC50: ≤ 50 nM

Compound: O=C(O)COc1cccc([C@@H](CN2CCCC2)NC(=O)Cc2ccc3oc(=O)[nH]c3c2)c1 [Example 85, (S)-2-(3-(1-(2-(2-oxo-2,3-dihydrobenzo[d]oxazol-5-yl)acetamido)-2-(pyrrolidin-1-yl)ethyl)phenoxy)acetic acid hydrochloride]
- EC50: ≤ 50 nM

Compound: CN(C(=O)Cc1ccc2oc(=O)n(CC(=O)O)c2c1)[C@H](CN1CC[C@H](O)C1)c1ccccc1 [Example 86]
- EC50: ≤ 50 nM

Compound: CN(C(=O)Cc1ccc2oc(=O)[nH]c2c1)C(CN1CC[C@H](O)C1)c1cccc(OCC(=O)O)c1 (stereo partly drawn) [Example 94, (S)-2-(3-(2-(3-hydroxypyrrolidin-1-yl)-1-(N-methyl-2-(2-oxo-2,3-dihydrobenzo[d]oxazol-5-yl)acetamido)ethyl)phenoxy)acetic acid triflouro acetate]
- EC50: ≤ 50 nM

Compound: CN(C(=O)Cc1ccc2c(c1)NC(=O)C2)C(CN1CC[C@H](O)C1)c1cccc(OCC(=O)O)c1 (stereo partly drawn) [Example 95, (S)-2-(3-(2-(3-hydroxypyrrolidin-1-yl)-1-(N-methyl-2-(2-oxoindolin-6-yl)acetamido)ethyl)phenoxy) acetic acid hydrochloride]
- EC50: ≤ 50 nM

Compound: COC(=O)c1ccc(Cn2c(=O)oc3ccc(CC(=O)N(C)[C@H](CN4CC[C@H](O)C4)c4ccccc4)cc32)cc1 [Example 98, Methyl 4-((5-(2-(((S)-2-((S)-3-hydroxypyrrolidin-1-yl)-1-phenylethyl)(methyl)amino)-2-oxoethyl)-2-oxobenzo[d]oxazol-3(2H)-yl)methyl)benzoate]
- EC50: ≤ 50 nM

Compound: CN(C(=O)Cc1ccc2c(c1)NC(=O)C2)[C@H](CN1CC[C@H](O)C1)c1cccc(OCc2nn[nH]n2)c1 [Example 112, N-((S)-1-(3-((2H-tetrazol-5-yl)methoxy)phenyl)-2-((S)-3-hydroxypyrrolidin-1-yl)ethyl)-N-methyl-2-(2-oxoindolin-6-yl)acetamide]
- EC50: 51 to 100 nM

Compound: O=C1COc2ccc(CC(=O)N[C@H](CN3CCCC3)c3ccccc3)cc2N1 [Example 114, (S)-2-(3-oxo-3,4-dihydro-2H-benzo[b][1,4]oxazin-6-yl)-N-(1-phenyl-2-(pyrrolidin-1-yl)ethyl)acetamide]
- EC50: ≤ 50 nM

Compound: O=C(Cc1ccc2sc(=S)[nH]c2c1)N[C@H](CN1CC[C@H](O)C1)c1ccccc1 [Example 118, N-((S)-2-((S)-3-hydroxypyrrolidin-1-yl)-1-phenylethyl)-2-(2-thioxo-2,3-dihydrobenzo[d]thiazol-5-yl)acetamide]
- EC50: ≤ 50 nM

Compound: O=C1CS(=O)(=O)c2ccc(CC(=O)N[C@H](CN3CCCC3)c3ccccc3)cc2N1 [Example 121, (S)-2-(1,1-dioxido-3-oxo-3,4-dihydro-2H-benzo[b][1,4]thiazin-6-yl)-N-(1-phenyl-2-(pyrrolidin-1-yl)ethyl)acetamide]
- EC50: ≤ 50 nM

Compound: O=C1CS(=O)(=O)c2ccc(CC(=O)N[C@H](CN3CC[C@H](O)C3)c3ccccc3)cc2N1 [Example 122, 2-(1,1-dioxido-3-oxo-3,4-dihydro-2H-benzo[b][1,4]thiazin-6-yl)-N-((S)-2-((S)-3-hydroxypyrrolidin-1-yl)-1-phenylethyl)acetamide]
- EC50: ≤ 50 nM

Compound: CN(C(=O)Cc1ccc2c(c1)NC(=O)CS2(=O)=O)[C@H](CN1CC[C@H](O)C1)c1cccc(C(F)(F)F)c1 [Example 123, 2-(1,1-dioxido-3-oxo-3,4-dihydro-2H-benzo[b][1,4]thiazin-6-yl)-N-((S)-2-((S)-3-hydroxypyrrolidin-1-yl)-1-(3-(trifluoromethyl)phenyl)ethyl)-N-methylacetamide]
- EC50: ≤ 50 nM

Compound: CN(C(=O)Cc1ccc2c(c1)NC(=O)CS2(=O)=O)[C@H](CN1CC[C@H](O)C1)c1cccc(F)c1 [Example 124, 2-(1,1-dioxido-3-oxo-3,4-dihydro-2H-benzo[b][1,4]thiazin-6-yl)-N-((S)-1-(3-fluorophenyl)-2-((S)-3-hydroxypyrrolidin-1-yl)ethyl)-N-methylacetamide]
- EC50: ≤ 50 nM

Compound: CN(C(=O)Cc1ccc2c(c1)NC(=O)CS2(=O)=O)[C@H](CN1CC[C@H](O)C1)C1CCCCC1 [Example 125, N-((S)-1-cyclohexyl-2-((S)-3-hydroxypyrrolidin-1-yl)ethyl)-2-(1,1-dioxido-3-oxo-3,4-dihydro-2H-benzo [b][1,4]thiazin-6-yl)-N-methylacetamide]
- EC50: ≤ 50 nM

Compound: COc1cccc([C@@H](CN2CC[C@H](O)C2)N(C)C(=O)Cc2ccc3c(c2)NC(=O)CS3(=O)=O)c1 [Example 126, 2-(1,1-dioxido-3-oxo-3,4-dihydro-2H-benzo[b][1,4]thiazin-6-yl)-N-((S)-2-((S)-3-hydroxypyrrolidin-1-yl)-1-(3-methoxyphenyl)ethyl)-N-methylacetamide]
- EC50: ≤ 50 nM

Compound: O=C1CSc2ccc(CC(=O)N[C@H](CN3CCCC3)c3ccccc3)cc2N1 [Example 127, (S)-2-(3-oxo-3,4-dihydro-2H-benzo [b][1,4]thiazin-6-yl)-N-(1-phenyl-2-(pyrrolidin-1-yl)ethyl)acetamide]
- EC50: ≤ 50 nM

Compound: O=C1CSc2ccc(CC(=O)N[C@H](CN3CC[C@H](O)C3)c3ccccc3)cc2N1 [Example 128, N-((S)-2-((S)-3-hydroxypyrrolidin-1-yl)-1-phenylethyl)-2-(3-oxo-3,4-dihydro-2H-benzo[b][1,4]thiazin-6-yl)acetamide]
- EC50: ≤ 50 nM

Compound: CN(C(=O)Cc1ccc2c(c1)NC(=O)CS2)[C@H](CN1CCCC1)c1ccccc1 [Example 129, (S)-N-methyl-2-(3-oxo-3,4-dihydro-2H-benzo [b][1,4]thiazin-6-yl)-N-(1-phenyl-2-(pyrrolidin-1-yl)ethyl)acetamide]
- EC50: ≤ 50 nM

Compound: CN(C(=O)Cc1ccc2c(c1)NC(=O)CS2)C(CN1CC[C@H](O)C1)C1CCOCC1 (stereo partly drawn) [Example 130, N-(2-((S)-3-hydroxypyrrolidin-1-yl)-1-(tetrahydro-2H-pyran-4-yl)ethyl)-N-methyl-2(3-oxo-3,4-dihydro-2H-benzo[b][1,4]thiazin-6-yl)acetamide]
- EC50: ≤ 50 nM

Compound: COc1cccc([C@@H](CN2CC[C@H](O)C2)N(C)C(=O)Cc2ccc3c(c2)NC(=O)CS3)c1 [Example 131, N-((S)-2-((S)-3-hydroxypyrrolidin-1-yl)-1-(3-methoxyphenyl)ethyl)-N-methyl-2-(3-oxo-3,4-dihydro-2H-benzo[b][1,4]thiazin-6-yl)acetamide]
- EC50: ≤ 50 nM

Compound: CN(C(=O)Cc1ccc2c(c1)NC(=O)CS2)[C@H](CN1CC[C@H](O)C1)c1cccc(C(F)(F)F)c1 [Example 132, N-((S)-2-((S)-3-hydroxypyrrolidin-1-yl)-1-(3-(trifluoromethyl)phenyl)ethyl)-N-methyl-2-(3-oxo-3,4-dihydro-2H-benzo[b][1,4]thiazin-6-yl)acetamide]
- EC50: ≤ 50 nM

Compound: CN(C(=O)Cc1ccc2c(c1)NC(=O)CS2)[C@H](CN1CC[C@H](O)C1)c1cccc(F)c1 [Example 133, N-((S)-1-(3-fluorophenyl)-2-((S)-3-hydroxypyrrolidin-1-yl)ethyl)-N-methyl-2-(3-oxo-3,4-dihydro-2H-benzo[b][1,4]thiazin-6-yl)acetamide]
- EC50: ≤ 50 nM

Compound: CN(C(=O)Cc1ccc2c(c1)NC(=O)CS2)[C@H](CN1CC[C@H](O)C1)c1cccc(OC(F)(F)F)c1 [Example 134, N-((S)-2-((S)-3-hydroxypyrrolidin-1-yl)-1-(3-(trifluoromethoxy)phenyl)ethyl)-N-methyl-2-(3-oxo-3,4-dihydro-2H-benzo[b][1,4]thiazin-6-yl)acetamide]
- EC50: ≤ 50 nM

Compound: CN(C(=O)Cc1ccc2c(c1)N(Cc1ccccc1)S(=O)(=O)C2)[C@H](CN1CC[C@H](O)C1)c1ccccc1 [Example 135, 2-(1-benzyl-2,2-dioxido-1,3-dihydrobenzo[c]isothiazol-6-yl)-N-((S)-2-((S)-3-hydroxypyrrolidin-1-yl)-1-phenylethyl)-N-methylacetamide]
- EC50: ≤ 50 nM

Compound: CCCN(C(=O)Cc1ccc2c(c1)NC(=O)CS2(=O)=O)[C@H](CN1CC[C@H](O)C1)c1cccc(OC(F)(F)F)c1 [Example 137, 2-(1,1-dioxido-3-oxo-3,4-dihydro-2H-benzo[b][1,4]thiazin-6-yl)-N-((S)-2-((S)-3-hydroxypyrrolidin-1-yl)-1-(3-(trifluoromethoxy)phenyl)ethyl)-N-propylacetamide]
- EC50: ≤ 50 nM

Compound: CC(C)N(C(=O)Cc1ccc2c(c1)NC(=O)CS2(=O)=O)[C@H](CN1CC[C@H](O)C1)c1cccc(OC(F)(F)F)c1 [Example 138, 2-(1,1-dioxido-3-oxo-3,4-dihydro-2H-benzo[b][1,4]thiazin-6-yl)-N-((S)-2-((S)-3-hydroxypyrrolidin-1-yl)-1-(3-(trifluoromethoxy)phenyl)ethyl)-N-isopropylacetamide]
- EC50: 51 to 100 nM

Compound: O=C1CS(=O)(=O)c2ccc(CC(=O)N(C3CC3)[C@H](CN3CC[C@H](O)C3)c3cccc(OC(F)(F)F)c3)cc2N1 [Example 139]
- EC50: ≤ 50 nM

Compound: CN(C(=O)Cc1ccc2c(c1)NC(=O)C(C)(C)S2)[C@H](CN1CC[C@H](O)C1)c1cccc(OC(F)(F)F)c1 [Example 143, 2-(2,2-dimethyl-3-oxo-3,4-dihydro-2H-benzo[b][1,4]thiazin-6-yl)-N-((S)-2-((S)-3-hydroxypyrrolidin-1-yl)-1-(3-(trifluoromethoxy)phenyl)ethyl)-N-methylacetamide]
- EC50: ≤ 50 nM
